Test results as given in article PMC12310023 (PLOS Neglected Tropical Diseases, 2025).
Like-named read-outs stand apart in the source and are kept apart here.

Columns and labels:
[1] = target: T1, CYP2C8 (Homo sapiens, UniProt P10632); experiment: in vitro; conditions: recombinant CYP2C8 supersomes
T1 sequence (P10632 1-490): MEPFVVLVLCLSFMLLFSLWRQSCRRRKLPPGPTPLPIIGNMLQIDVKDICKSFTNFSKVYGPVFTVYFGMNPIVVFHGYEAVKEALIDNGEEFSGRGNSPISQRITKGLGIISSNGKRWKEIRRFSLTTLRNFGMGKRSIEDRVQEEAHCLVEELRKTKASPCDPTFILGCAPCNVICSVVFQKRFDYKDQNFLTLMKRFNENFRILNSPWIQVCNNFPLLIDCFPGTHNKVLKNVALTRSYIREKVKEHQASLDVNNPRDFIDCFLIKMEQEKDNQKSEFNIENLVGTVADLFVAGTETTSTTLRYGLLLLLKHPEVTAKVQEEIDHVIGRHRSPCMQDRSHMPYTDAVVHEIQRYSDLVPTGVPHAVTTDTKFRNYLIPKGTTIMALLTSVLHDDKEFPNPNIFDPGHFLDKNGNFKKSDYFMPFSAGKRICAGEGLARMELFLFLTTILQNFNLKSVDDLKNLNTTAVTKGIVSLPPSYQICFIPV

[2] = tested on: CYP1A2; experiment: CYP Induction Assay in dog hepatocytes; conditions: 30 and 100 μM, 48 h
[3] = target: HsSrC (Homo sapiens, UniProt P12931); experiment: SrC enzyme inhibition; format: biochemical
HsSrC, sequence (P12931 whole entry): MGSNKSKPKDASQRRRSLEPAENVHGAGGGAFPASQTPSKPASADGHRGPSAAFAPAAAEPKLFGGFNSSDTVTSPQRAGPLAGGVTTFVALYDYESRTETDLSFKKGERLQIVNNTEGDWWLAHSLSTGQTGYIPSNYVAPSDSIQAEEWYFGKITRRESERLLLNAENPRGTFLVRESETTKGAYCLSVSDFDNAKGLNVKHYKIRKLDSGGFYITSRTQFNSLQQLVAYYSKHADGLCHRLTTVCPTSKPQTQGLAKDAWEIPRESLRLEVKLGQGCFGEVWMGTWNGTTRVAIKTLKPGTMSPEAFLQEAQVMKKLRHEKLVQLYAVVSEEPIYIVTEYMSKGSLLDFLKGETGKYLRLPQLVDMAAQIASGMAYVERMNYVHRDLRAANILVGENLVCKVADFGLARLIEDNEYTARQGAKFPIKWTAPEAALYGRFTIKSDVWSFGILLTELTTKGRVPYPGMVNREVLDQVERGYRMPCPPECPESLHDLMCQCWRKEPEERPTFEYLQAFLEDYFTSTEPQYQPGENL
Text: (§1) […]. […] All other methods are specified in S1 File.

[4] = Hepatocyte stability; conditions: human
[5] = target: C. parvum CDPK1 (Cryptosporidium parvum, UniProt A3FQ16); experiment: CpCDPK1 enzyme inhibition; format: biochemical
C. parvum CDPK1, sequence (A3FQ16 1-538): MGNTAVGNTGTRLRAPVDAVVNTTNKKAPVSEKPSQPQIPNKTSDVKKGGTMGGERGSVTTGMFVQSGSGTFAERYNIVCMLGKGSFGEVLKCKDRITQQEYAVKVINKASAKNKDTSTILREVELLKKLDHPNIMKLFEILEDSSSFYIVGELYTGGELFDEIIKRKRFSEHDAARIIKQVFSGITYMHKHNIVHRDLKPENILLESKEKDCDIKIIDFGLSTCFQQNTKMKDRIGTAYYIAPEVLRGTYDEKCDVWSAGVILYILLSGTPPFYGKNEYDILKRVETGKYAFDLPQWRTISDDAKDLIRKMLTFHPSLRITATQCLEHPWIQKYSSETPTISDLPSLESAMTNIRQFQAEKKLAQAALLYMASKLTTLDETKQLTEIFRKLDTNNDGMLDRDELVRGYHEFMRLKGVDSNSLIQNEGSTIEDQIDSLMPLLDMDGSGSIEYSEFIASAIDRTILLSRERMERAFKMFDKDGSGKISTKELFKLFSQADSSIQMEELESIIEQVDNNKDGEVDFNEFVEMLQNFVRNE
Text: as §1

[6] = target: T2, CYP2C9 (Homo sapiens, UniProt P11712); experiment: in vitro; conditions: recombinant CYP2C9 supersomes
T2 sequence (P11712 whole entry): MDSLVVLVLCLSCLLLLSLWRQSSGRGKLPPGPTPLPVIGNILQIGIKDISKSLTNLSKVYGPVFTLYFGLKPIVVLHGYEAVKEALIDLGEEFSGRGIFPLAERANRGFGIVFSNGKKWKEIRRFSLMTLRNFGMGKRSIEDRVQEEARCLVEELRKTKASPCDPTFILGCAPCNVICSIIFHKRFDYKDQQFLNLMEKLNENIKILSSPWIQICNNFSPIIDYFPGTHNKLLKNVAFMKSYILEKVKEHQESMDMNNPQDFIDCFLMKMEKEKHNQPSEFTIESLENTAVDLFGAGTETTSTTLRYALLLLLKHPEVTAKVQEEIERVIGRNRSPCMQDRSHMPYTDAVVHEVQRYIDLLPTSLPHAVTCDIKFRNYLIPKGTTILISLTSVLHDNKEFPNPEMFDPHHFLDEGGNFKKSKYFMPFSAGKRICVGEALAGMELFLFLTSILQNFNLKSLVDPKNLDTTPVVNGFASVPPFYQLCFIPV

[7] = target: T3, CYP2C19 (Homo sapiens, UniProt P33261); experiment: in vitro; conditions: recombinant CYP2C19 supersomes
T3 sequence (P33261 whole entry): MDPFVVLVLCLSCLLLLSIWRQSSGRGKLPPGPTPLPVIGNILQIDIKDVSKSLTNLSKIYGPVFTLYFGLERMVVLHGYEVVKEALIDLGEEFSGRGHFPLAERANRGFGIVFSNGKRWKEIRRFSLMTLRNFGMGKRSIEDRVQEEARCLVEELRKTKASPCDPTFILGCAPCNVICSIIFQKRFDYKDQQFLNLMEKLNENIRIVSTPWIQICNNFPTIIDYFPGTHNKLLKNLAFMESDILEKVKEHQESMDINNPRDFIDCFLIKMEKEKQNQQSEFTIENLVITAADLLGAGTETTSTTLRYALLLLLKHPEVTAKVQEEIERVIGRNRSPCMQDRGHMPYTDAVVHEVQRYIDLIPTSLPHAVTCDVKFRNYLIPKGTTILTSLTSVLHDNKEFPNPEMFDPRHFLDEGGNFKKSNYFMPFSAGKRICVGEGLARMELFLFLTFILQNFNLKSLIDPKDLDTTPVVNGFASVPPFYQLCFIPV

[8] = Plasma protein binding, equilibrium dialysis; conditions: human
[9] = target: T2, CYP2C9; experiment: biochemical
[10] = target: T4, PPARУ (Homo sapiens, UniProt P37231); experiment: Cerep cellular and nuclear receptor functional assay; format: cell-based
T4 construct: Cerep (Eurofins, France)
T4 sequence (P37231 1-505): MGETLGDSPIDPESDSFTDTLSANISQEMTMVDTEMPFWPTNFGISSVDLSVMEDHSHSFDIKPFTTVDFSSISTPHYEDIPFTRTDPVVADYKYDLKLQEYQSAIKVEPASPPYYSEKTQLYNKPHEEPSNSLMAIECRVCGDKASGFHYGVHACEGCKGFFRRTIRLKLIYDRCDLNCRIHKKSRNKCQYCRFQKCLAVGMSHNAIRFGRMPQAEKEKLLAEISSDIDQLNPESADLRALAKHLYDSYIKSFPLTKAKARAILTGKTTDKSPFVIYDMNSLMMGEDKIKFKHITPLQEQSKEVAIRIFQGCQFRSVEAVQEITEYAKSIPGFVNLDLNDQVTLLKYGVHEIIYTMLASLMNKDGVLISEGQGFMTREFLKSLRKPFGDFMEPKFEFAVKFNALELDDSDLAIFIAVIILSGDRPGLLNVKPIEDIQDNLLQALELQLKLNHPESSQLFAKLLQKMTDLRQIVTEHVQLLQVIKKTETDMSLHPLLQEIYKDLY

[11] = target: CYP3A4 (Homo sapiens, UniProt P08684); experiment: in vitro; conditions: recombinant CYP3A4 supersomes
CYP3A4, sequence (P08684 whole entry): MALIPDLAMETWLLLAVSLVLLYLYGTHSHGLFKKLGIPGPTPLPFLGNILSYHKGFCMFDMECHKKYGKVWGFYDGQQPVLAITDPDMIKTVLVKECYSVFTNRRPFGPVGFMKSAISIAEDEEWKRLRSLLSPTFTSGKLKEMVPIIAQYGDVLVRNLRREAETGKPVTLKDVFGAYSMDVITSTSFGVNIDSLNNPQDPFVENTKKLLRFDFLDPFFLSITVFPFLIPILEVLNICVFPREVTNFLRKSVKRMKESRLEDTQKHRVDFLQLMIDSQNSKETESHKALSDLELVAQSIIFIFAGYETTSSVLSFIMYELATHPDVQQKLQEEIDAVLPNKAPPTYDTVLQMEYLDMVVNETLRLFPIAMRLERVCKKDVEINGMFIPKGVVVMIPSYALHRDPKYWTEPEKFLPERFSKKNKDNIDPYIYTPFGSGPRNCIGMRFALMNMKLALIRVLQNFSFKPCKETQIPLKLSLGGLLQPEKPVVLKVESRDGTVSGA

[12] = target: T5, A3 (Homo sapiens, UniProt P0DMS8); experiment: Cerep cellular and nuclear receptor functional assay
T5 sequence (P0DMS8 1-318): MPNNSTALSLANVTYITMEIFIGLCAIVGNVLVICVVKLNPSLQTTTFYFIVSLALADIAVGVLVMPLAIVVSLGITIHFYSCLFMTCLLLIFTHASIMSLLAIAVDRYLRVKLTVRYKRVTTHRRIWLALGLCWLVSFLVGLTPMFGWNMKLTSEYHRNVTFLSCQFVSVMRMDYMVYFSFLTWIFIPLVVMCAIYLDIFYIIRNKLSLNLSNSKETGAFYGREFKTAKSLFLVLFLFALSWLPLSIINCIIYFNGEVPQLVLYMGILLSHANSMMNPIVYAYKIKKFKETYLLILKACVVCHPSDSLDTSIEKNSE

[13] = target: Cl- channel (GABA-gated); experiment: Cerep binding assay
[14] = target: T3, CYP2C19; experiment: CYP reaction phenotyping, recombinant supersomes
[15] = tested on: panel of 71 common liability targets; experiment: Cerep panel of 71 common liability targets; format: binding; conditions: read-out: IC50s, all Cerep targets except AT2
[16] = target: CYP2D6 (Homo sapiens, UniProt P10635); experiment: CYP reaction phenotyping, recombinant supersomes
CYP2D6, sequence (P10635 whole entry): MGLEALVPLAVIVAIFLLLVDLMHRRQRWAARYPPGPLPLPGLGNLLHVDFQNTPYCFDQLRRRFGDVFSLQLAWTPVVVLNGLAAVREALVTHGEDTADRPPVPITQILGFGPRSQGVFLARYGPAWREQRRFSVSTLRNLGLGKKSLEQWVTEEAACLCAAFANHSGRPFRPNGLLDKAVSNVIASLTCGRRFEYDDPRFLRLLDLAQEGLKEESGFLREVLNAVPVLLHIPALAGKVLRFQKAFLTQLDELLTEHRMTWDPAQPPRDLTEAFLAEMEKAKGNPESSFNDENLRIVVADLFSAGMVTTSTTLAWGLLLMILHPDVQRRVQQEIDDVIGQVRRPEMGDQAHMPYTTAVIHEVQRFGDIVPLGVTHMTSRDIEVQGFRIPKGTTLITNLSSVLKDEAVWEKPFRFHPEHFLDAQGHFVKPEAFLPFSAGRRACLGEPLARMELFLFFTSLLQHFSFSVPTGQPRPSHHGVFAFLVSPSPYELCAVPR

[17] = Hepatocyte stability; conditions: mouse
[18] = target: T1, CYP2C8; experiment: CYP reaction phenotyping, recombinant supersomes
[19] = tested on: Salmonella bacteria; experiment: microAmes (μAmes) test
[20] = tested on: C. parvum Bunch Grass Farms isolate; experiment: Calibr high-content imaging Cryptosporidium panel; format: cell-based, Cryptosporidium parvum; conditions: Cryptosporidium parvum
[21] = liver microsomes and primary hepatocytes

For `CC1(C)Cn2nc(-c3ccc4cc(OC5CC5)ccc4c3)c(C(N)=O)c2NC1O` (stereo not drawn) [M2], the CLint scaled [1] was under 1.78 mL/min/kg, the half-life [1] was over 4 h and the “induction of CYP1A2” value [2] was “strong inducers”. The IC50 [3] was over 10 µM, the “LM:hepatocyte CLint_scaled ratio” value [4, 21] was under 2.5 and the CLint scaled ([4]; primary hepatocytes) was 10 mL/min/kg. The half-life ([4]; primary hepatocytes) was 6.27 h, the hepatocyte CLint ([4]; primary hepatocytes) was 3.7 µL/min/1e6 cells and the IC50 [5] was 0.0925 µM. For the same compound, the “fold reduction in potency compared to BKI-1708” value [5] was 132 fold, the CLint scaled [6] was under 1.78 mL/min/kg and the half-life [6] was over 4 h. The CLint scaled [7] was under 0.117 mL/min/kg, the half-life [7] was over 4 h and the fraction unbound [8] was 0.04. The IC50 [9] was over 40 µM, the agonist effect [10] was “no effect up to 100 μM” and the IC50 ([10]; read-out: IC50, antagonist effect) was over 100 µM. It also gave a CLint scaled [11] of 5.02 mL/min/kg, a half-life [11] of 0.817 h and an EC50 [12] of over 10 µM. The IC50 [12] was 43 µM, the IC50 [13] was 17 µM and the “% inhibition of control specific binding” value ([13]; 10 μM, antagonist radioligand, mean) was 50.6%. The “% contribution” value [14] was 0.0%, the CLint [14] was under 0.029 µL/min/pmol and the IC50 [15] was over 10 µM. The “% contribution” value [16] was 0.0%, the CLint [16] was under 0.029 µL/min/pmol and the “LM:hepatocyte CLint_scaled ratio” value [17, 21] was 1.7. It also gave a CLint scaled ([17]; primary hepatocytes) of 45 mL/min/kg, a half-life ([17]; primary hepatocytes) of 4.37 h and a hepatocyte CLint ([17]; primary hepatocytes) of 5.3 µL/min/1e6 cells. The “% contribution” value [18] was 0.0%, the CLint [18] was under 0.029 µL/min/pmol and the μAmes test result [19] was “negative”. It also gave an EC50 [20] of 0.32 µM, an EC90 [20] of 0.77 µM and an EC50 ([20]; read-out: Bunch Grass Farm C. parvum Count EC50, Crypto Panel 3 Replicate 1) of 0.388 µM. For the same compound, the EC50 ([20]; read-out: Bunch Grass Farm C. parvum Count EC50, Crypto Panel 3 Replicate 2) was 0.247 µM, the EC90 ([20]; read-out: Bunch Grass Farm C. parvum Count EC90, Replicate 1) was 0.966 µM and the EC90 ([20]; read-out: Bunch Grass Farm C. parvum Count EC90, Replicate 2) was 0.569 µM.
